Key:
[1] = system: BD1 domain of BRD4; set-up: method as in Hewings et al., 2013; conditions: ref Hewings et al., 2013; read-out: IC50 against the BD1 domain of BRD4; cited from earlier work
[2] = target: T1, recombinant BRD4 (BD1 + BD2) (Homo sapiens, UniProt O60885); assay: BRD4 TR-FRET activity assay; type: binding;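 note: signal rises with BET ligand binding to the bromodomains, so inhibitors lower it, 120 min incubation at room temperature, 1% DMSO, wells lacking ligand as negative control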
T1 construct: employing a recombinant BRD4 (BD1 + BD2) and its corresponding ligand
Method: The BRD4 activity assay utilized TR-FRET technology, employing a recombinant BRD4 (BD1 + BD2) and its corresponding ligand. The TR-FRET signal generated in the assay is proportional to the ligand’s binding to the bromodomains. All reactions contained a final DMSO concentration of 1%. All binding reactions were conducted at room temperature. Each 20 µL reaction mixture, in assay buffer, comprised bromodomains, the BET Ligand, and the specified inhibitor amount. For the negative control, 5 µL of assay buffer replaced the BET ligand. After a 120-min incubation with the ligand, the TR-FRET signal was captured using a Tecan Infinite M1000 plate reader. IC50 values were determined through nonlinear regression with a normalized dose-response fit in Prism GraphPad software.

[3] = target: PARP1 (Homo sapiens, UniProt P09874); assay: PARP1 enzymatic activity ELISA; type: biochemical; conditions: ELISA
Method: The inhibition of PARP1 enzymatic activity by the tested compounds was gauged using an ELISA in 96-well plates. Each well was pre-coated with histone (20 μg/mL) in 100 μL of PBS buffer and incubated overnight at 4 °C. […] This was followed by the addition of 5 μL of either the compound at varying concentrations or a solvent control. The reaction was initiated by adding 20 μL of PARP (50 ng/well) and incubating at 30°C for 1 h. Post-reaction, 50 µL of streptavidin-conjugated HRP was introduced, and the assay continued at 30°C for an additional 30 min. Finally, 100 μL of a solution containing H2O2 and luminol in 0.1 M citrate buffer (pH 5.4) was added, and the luminescent signal was recorded using a Molecular Devices SpectraMax M5 microplate reader.

[4] = system: MDA-MB-231 cells; assay: MTT cell viability assay, MDA-MB-231; type: cell-based; conditions: Homo sapiens; MDA-MB-231, MTT, 72 h; read-out: Cytotoxicity IC50
Method: (§1) MDA-MB-468, MDA-MB-231, and MCF-7 cell lines were sourced from the National Collection of Authenticated Cell Culture, China. Cells were maintained in DMEM medium supplemented with 10% FBS and 1% penicillin/streptomycin, and incubated at 37°C in a humidified atmosphere containing 5% CO2.
(§2) The viability of cells was assessed using the MTT assay. Cells were seeded at a density of 3×10^3 cells per well in a 96-well plate and treated with varying concentrations (0.05, 0.2, 0.8, 3.2, 6.4, 12.8 µM) of the compounds for 72 h. Post-incubation, 100 µL of MTT solution (0.5 mg/mL) was added to each well and further incubated for 4 h. The resulting formazan crystals were dissolved in 150 µL DMSO, and the absorbance was measured at 570 nm using a microplate reader.

[5] = system: MDA-MB-468 cells; assay: MTT cell viability assay, MDA-MB-468; type: cell-based; conditions: Homo sapiens; MDA-MB-468, MTT, 72 h; read-out: Cytotoxicity IC50
Method: as §1, §2

[6] = system: MCF-7 cells; assay: MTT cell viability assay, MCF-7; type: cell-based; conditions: Homo sapiens, MCF7; MCF-7, MTT, 72 h; read-out: Cytotoxicity IC50
Method: as §1, §2

[7] = system: MCF-7 cells; assay: Cell cycle analysis (PI, flow cytometry); type: cell-based; conditions: for proportion of cells in G1 phase: 48 h
Method: The cell cycle distribution was assessed using the DNA Content Quantitation Assay Kit (Solarbio, China). […] After treatment, cells were harvested, fixed in ice-cold 70% ethanol overnight at 4°C, and subsequently washed with PBS. Cells were then treated with 100 μL RNase at 37°C for 30 min and stained with 400 μL PI for 30 min at 4°C in the dark. The cell cycle distribution was analyzed using an Accuri C6 Plus flow cytometer (BD Bioscience, CA), and data interpretation was performed with FlowJo software.

[8] = system: c-MYC expression in MCF-7 cells; assay: Western blot of c-MYC; type: cell-based; conditions: MCF-7, 24 h
Method: (§3) Cells were then lysed using RIPA buffer supplemented with protease and phosphatase inhibitors. Protein concentrations were determined using the BCA Protein Assay Kit. Equal amounts of protein (20–30 µg) were separated by SDS-polyacrylamide gel electrophoresis and subsequently transferred to a polyvinylidene fluoride (PVDF) membrane. The membrane was blocked using 5% milk in PBS prior to incubation with primary antibodies. Primary antibodies against p-H2AX (Cell Signaling Technology™, US), c-MYC, and β-actin (Proteintech, US) were used. After overnight incubation at 4°C, membranes were washed and incubated with HRP-conjugated secondary antibodies for 1 h. Protein bands were visualized using ECL reagents.

[9] = system: γ-H2AX in MCF-7 cells; assay: Western blot of γ-H2AX; type: cell-based; conditions: MCF-7, 24 h
Method: as §3

[10] = system: MCF-7 cells; assay: Clonogenic (colony formation) assay; type: cell-based; conditions: MCF-7, 0.3, 1, 3 μM, 8 days
Method: MCF-7 cells were seeded in 6-well plates at a density of 500 cells/well and allowed to grow for 8 days to facilitate colony formation. After incubation, cells were washed with PBS, fixed in methanol for 15 min, and stained with 1% crystal violet for an hour. Colonies were then imaged and counted.

[11] = system: MCF-7 cells; assay: Wound scratch cell migration assay; type: cell-based; conditions: MCF-7, wound scratch, 1 μM, 48 h
Method: MCF-7 cells were seeded in 6-well plates at a density of 5×10^5 cells/well and incubated overnight. A scratch was made in the cell monolayer using a 10 µL pipette tip. […] Images were captured at 0, 12, 24, and 48-h intervals.

[12] = system: MCF-7 cells; assay: Comet assay (DNA damage); type: cell-based; conditions: MCF-7, 24 h
Method: The comet assay was performed under alkaline conditions using the Comet Assay Kit (Beyotime, China) as per the manufacturer’s instructions. […] This mixture was spread onto microscope slides, which were then submerged in lysis solution for an hour. Electrophoresis was conducted in a horizontal apparatus at 25 V and 300 mA. Post-electrophoresis, slides were stained with PI for DNA visualization, and images were captured using a fluorescence inverted microscope.

Sequence of PARP1 (P09874 whole entry): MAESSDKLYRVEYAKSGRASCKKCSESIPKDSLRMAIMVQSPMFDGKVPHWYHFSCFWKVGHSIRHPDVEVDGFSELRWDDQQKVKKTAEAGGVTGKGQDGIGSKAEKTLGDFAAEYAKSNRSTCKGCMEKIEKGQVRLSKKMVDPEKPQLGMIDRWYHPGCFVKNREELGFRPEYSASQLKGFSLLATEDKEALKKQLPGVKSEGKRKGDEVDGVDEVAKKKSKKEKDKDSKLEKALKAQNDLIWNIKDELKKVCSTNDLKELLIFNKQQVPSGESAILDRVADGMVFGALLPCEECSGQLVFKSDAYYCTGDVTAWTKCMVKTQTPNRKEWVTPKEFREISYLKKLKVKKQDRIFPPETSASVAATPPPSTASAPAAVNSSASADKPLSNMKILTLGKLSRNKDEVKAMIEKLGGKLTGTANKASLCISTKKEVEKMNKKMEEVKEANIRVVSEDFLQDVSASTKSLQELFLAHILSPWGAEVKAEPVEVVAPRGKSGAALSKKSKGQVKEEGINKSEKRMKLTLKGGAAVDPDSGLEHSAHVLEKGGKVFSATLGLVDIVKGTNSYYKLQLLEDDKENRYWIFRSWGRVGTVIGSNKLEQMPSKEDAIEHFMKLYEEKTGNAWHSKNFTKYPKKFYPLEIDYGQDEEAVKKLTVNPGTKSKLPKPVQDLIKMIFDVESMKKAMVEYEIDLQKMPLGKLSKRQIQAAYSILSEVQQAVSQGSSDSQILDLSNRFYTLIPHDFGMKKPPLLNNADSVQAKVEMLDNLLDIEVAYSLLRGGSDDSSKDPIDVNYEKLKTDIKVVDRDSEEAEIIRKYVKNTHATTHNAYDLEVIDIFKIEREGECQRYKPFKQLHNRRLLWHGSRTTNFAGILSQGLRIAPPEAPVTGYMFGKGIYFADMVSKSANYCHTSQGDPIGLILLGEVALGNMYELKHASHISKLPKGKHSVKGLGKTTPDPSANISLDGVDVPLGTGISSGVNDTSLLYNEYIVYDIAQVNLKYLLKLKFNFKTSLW

inhibition at 1 µM ([2]; 1 μmol/L, read-out: BRD4 inhibition rate) [%]	IC50 ([2]; TR-FRET, BRD4 (BD1 + BD2)) [nM]	IC50 [3] [µM]	Compound	IC50 [1] [nM]	IC50 [4] [µM]	IC50 [5] [µM]	IC50 [6] [µM]	proportion of cells in G1 phase ([7]; MCF-7, 0.3 μM) [%]	proportion of cells in G1 phase ([7]; MCF-7, 1 μM) [%]	proportion of cells in G1 phase ([7]; MCF-7, 3 μM) [%]	effect on cell cycle (in words) ([7]; MCF-7, 48 h)	expression of c-MYC (Western blot) [8]	γ-H2AX level (Western blot) [9]	colony formation (in words) [10]	inhibition of cell migration (in words) [11]	DNA damage (comet assay, in words) [12]
–	–	–	Cc1noc(C)c1-c1cc(O)cc(C(=O)c2ccccc2)c1 [Compound 7]	544	–	–	–	–	–	–	–	–	–	–	–	–
85	237 ± 93	4.29 ± 1.81	Cc1noc(C)c1-c1cc(Cc2n[nH]c(=O)c3ccccc23)cc(NC(=O)c2ccccc2C(F)(F)F)c1 [DDT26]	–	7.55	3.96	4.9	53.8	59.8	64.5	dose-dependent G1 phase cell cycle arrest	downregulate the expression of c-MYC in MCF-7 cells in a concentration-dependent manner	induced the accumulation of γ-H2AX in MCF-7 cells in a concentration-dependent fashion	inhibited colony formation in MCF-7 cells in a dose-dependent manner	slightly less pronounced	induced DNA damage in MCF-7 cells in a dose-dependent manner

Reference: paper PMC10720709, “Design, synthesis, and evaluation of 4-(3-(3,5-dimethylisoxazol-4-yl)benzyl)phthalazin-1(2H)-one derivatives: potent BRD4 inhibitors with anti-breast cancer activity” (Frontiers in Pharmacology, 2023)
